The target in the assay is VEGFR2 (Homo sapiens (Human), UniProt P35968). Nature of the assay: Inhibitory activity of VEGFR2 kinase (HTRF KinEASE-TK kit). The format is biochemical. Particulars: for IC50: ATP 5 μM, 20 minutes, room temperature; for IC50 value as fold of that of Comparative compound 2 / IC50 value as fold of that of Sorafenib (free base): ratio of IC50. The protocol:
HTRF®KinEASE™-TK kit (Cat.62TKOPEC, Cisbio);
VEGFR2 (Cat: k2643, Sigma);
2.1 Preparation of VEGFR2 Kinase Reagent
1× kinase buffer: 1 mL 1× kinase buffer contained 200 μL 5× kinase buffer (Invitrogen), 5 μL, 1M MgCl2, 1 μL 1M DTT, 1 μL 1M MnCl2, and 793 μL ddH2O;
5×TK substrate-biotin and ATP working fluid: as the concentrations of TK substrate-biotin and ATP, please refer to Table 1. TK substrate-biotin and ATP were diluted with 1× kinase buffer to 5 folds of the reaction concentrations;
5× kinase working fluid: as the concentration of VEGFR2 kinase, please refer to Table 1. 5× kinase working fluid was prepared with 1× Kinase buffer;
4× Sa-XL665 working fluid: as the concentration of Sa-XL665 (Cisbio) in the reaction, please refer to Table 1. The 4× Sa-XL665 working fluid was prepared with assay buffer (Cisbio);
4×TK Ab-cryptate working fluid: TK Ab-Cryptate (Cisbio) was 100-fold diluted with assay buffer (Cisbio), as working fluid;
Experimental Procedure of HTRF KinEASE TK Kit
After all the reagents were prepared as described above, the reagents except for enzymes were equilibrated to room temperature, then adding samples were performed.
TK substrate-biotin, ATP, VEGFR2 kinase and a compound at a certain concentration were reacted in 1× kinase buffer at room temperature for 20 minutes. […] To all the reaction wells, 5 μl 4× Sa-XL665 working fluid and 5 μl 4×TK Ab-cryptate working fluid were added. After reacting at room temperature for 1 hours, fluorescence signal (excited at 320 nm, emitted at 665 nm, 615 nm) was detected by ENVISION detector (Perkinelmer). Based on the full-active well and the background signal well, the inhibition rate for each well was calculated, and the average value was used for duplicate wells. The half maximal inhibitory concentration (IC50) for each test compound was fitted by professional software Graphpad PRISM 5.0.
2.3 Data Analysis Emission light ratio (ER)=665 nm emission signal/615 nm emission signal Inhibition rate=(ERpositive−ERsample)/(ERpositive−ERnegative)*100%
HTRF KinEASE TK kit was used to determine the IC50 value of a compound for kinase VEGFR2. The final concentration of the compound started from 100 μM, and 4-fold gradient dilution was carried out to provide 10 concentrations. Duplicate wells were used for each concentration. The final concentration of DMSO was controlled to 1% in the reaction system.

The structures appear in SMILES notation.

Sequence of VEGFR2 (P35968 20-1356): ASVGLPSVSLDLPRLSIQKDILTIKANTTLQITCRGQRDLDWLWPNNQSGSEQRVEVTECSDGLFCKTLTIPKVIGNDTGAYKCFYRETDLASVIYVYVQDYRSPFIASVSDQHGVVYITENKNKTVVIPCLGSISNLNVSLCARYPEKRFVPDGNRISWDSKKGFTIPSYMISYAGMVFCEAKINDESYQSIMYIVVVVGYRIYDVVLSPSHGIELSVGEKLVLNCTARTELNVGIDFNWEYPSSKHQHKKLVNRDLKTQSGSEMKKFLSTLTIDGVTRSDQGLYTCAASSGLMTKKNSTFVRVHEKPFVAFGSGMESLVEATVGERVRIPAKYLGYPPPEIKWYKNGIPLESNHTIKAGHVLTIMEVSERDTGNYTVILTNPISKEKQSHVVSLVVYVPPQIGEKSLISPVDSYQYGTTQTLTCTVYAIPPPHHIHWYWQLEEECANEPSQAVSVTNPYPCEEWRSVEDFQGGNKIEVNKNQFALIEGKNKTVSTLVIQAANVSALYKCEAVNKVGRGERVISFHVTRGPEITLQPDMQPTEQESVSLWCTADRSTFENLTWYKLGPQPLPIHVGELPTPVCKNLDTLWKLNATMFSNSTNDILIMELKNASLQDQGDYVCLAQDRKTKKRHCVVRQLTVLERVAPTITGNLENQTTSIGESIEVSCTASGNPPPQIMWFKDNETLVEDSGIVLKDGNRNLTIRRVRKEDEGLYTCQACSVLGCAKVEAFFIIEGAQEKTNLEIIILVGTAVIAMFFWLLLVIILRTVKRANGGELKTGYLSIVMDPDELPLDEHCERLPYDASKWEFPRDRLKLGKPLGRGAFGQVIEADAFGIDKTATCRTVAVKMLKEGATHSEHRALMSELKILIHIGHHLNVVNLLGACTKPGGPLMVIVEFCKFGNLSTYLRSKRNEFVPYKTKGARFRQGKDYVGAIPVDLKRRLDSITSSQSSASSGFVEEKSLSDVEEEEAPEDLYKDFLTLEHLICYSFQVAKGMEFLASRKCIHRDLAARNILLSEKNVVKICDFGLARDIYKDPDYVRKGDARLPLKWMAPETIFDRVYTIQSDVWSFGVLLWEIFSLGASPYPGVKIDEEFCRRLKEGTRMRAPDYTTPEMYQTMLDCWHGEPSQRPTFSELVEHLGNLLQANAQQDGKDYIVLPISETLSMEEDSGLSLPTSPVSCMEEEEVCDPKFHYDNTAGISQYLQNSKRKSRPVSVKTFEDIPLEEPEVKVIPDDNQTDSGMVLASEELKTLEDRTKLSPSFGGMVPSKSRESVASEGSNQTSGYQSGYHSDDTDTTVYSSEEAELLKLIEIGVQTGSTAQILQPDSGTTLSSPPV

`Cn1cc(-c2nccc(Oc3ccc(NC(=O)Nc4ccc(Cl)c(C(F)(F)F)c4)cc3)c2C#N)cn1` [Example 4, 1-(4-chloro-3-(trifluoromethyl)phenyl)-3-(4-(3-cyano-2-(1-methyl-pyrazol-4-yl)-pyridin-4-yl-oxy)phenyl)urea] displayed an IC50 of 68.5 nM. In addition, under “VEGFR2 kinase”, the “inhibitory activity as fold of that of Comparative compound 2” value is 2.7 fold, the “inhibitory activity as fold of that of Sorafenib” value came to 1.3 fold, the “IC50 value as fold of that of Comparative compound 2” value stood at 0.36 fold and the “IC50 value as fold of that of Sorafenib (free base)” value is 0.75 fold. Take `COc1cc(Oc2ccc(NC(=O)Nc3ccc(Cl)c(C(F)(F)F)c3)cc2)cc(-c2cnn(C)c2)n1` [Comparative example 5, 1-(4-chloro-3-(trifluoromethyl)phenyl)-3-(4-(2-(1-methyl-pyrazol-4-yl)-6-methoxy-pyridin-4-yl-oxy)phenyl)urea, reference compound]: the IC50 is 2390 nM. Compound `CNc1c(Oc2ccc(NC(=O)Nc3ccc(Cl)c(C(F)(F)F)c3)cc2)ccnc1-c1cnn(C)c1` [Example 7, 1-(4-chloro-3-(trifluoromethyl)phenyl)-3-(4-(3-methylamino-2-(1-methyl-pyrazol-4-yl)-pyridin-4-yl-oxy)phenyl)urea] gave an IC50 of 656 nM. `Cn1cc(-c2cc(Oc3ccc(NC(=O)Nc4ccc(Cl)c(C(F)(F)F)c4)cc3)c(F)cn2)cn1` [Comparative example 3, 1-(4-chloro-3-(trifluoromethyl)phenyl)-3-(4-(2-(1-methyl-pyrazol-4-yl)-5-fluoro-pyridin-4-yl-oxy)phenyl)urea, reference compound] showed an IC50 of 437 nM. On to `COc1c(Oc2ccc(NC(=O)Nc3ccc(Cl)c(C(F)(F)F)c3)cc2)ccnc1-c1cnn(C)c1` [Example 8, 1-(4-chloro-3-(trifluoromethyl)phenyl)-3-(4-(3-methoxy-2-(1-methyl-pyrazol-4-yl)-pyridin-4-yl-oxy)phenyl)urea], for which the IC50 was determined as 417 nM. Same read-out and setting: the result for `Cn1cc(-c2nccc(Oc3ccc(NC(=O)Nc4ccc(Cl)c(C(F)(F)F)c4)cc3)c2N)cn1` [Example 6, 1-(4-chloro-3-(trifluoromethyl)phenyl)-3-(4-(3-amino-2-(1-methyl-pyrazol-4-yl)-pyridin-4-yl-oxy)phenyl)urea] reads 215 nM; that for `Cn1cc(-c2cc(Oc3ccc(NC(=O)Nc4ccc(Cl)c(C(F)(F)F)c4)cc3)c(Cl)cn2)cn1` [Comparative example 4, 1-(4-chloro-3-(trifluoromethyl)phenyl)-3-(4-(2-(1-methyl-pyrazol-4-yl)-5-chloro-pyridin-4-yl-oxy)phenyl)urea, reference compound], 20500 nM.

Take `Cn1cc(-c2nccc(Oc3ccc(NC(=O)Nc4ccc(Cl)c(C(F)(F)F)c4)c(F)c3)c2Cl)cn1` [Example 3, 1-(4-chloro-3-(trifluoromethyl)phenyl)-3-(4-(3-chloro-2-(1-methyl-pyrazol-4-yl)-pyridin-4-yl-oxy)-2-fluorophenyl)urea]: the 50% inhibitory concentration (IC50) was 222 nM. In addition, under “VEGFR2 kinase”, the “inhibitory activity as fold of that of Sorafenib” value is 1.5 fold, the “IC50 value as fold of that of Comparative compound 2” value is on record as “comparable” and the “IC50 value as fold of that of Sorafenib (free base)” value is 2.5 fold. For the compound `Cc1c(Oc2ccc(NC(=O)Nc3ccc(Cl)c(C(F)(F)F)c3)cc2)ccnc1-c1cnn(C)c1` [Example 5, 1-(4-chloro-3-(trifluoromethyl)phenyl)-3-(4-(3-methyl-2-(1-methyl-pyrazol-4-yl)-pyridin-4-yl-oxy)phenyl)urea], the IC50 turned out to be 317 nM.

What is called IC50 is the concentration that gives 50% inhibition.

Source of the values: patent US9902709B2, “Polysubstituted pyridine compound, preparation method, use and pharmaceutical composition” (PEKING UNIVERSITY FOUNDER GROUP CO., LTD., priority 2014, dated 2018).
